For 29 compounds, Ki results are on record in patent publication US9181239B2, “Pyridopyrimidinone inhibitors of kinases” (AbbVie Inc., priority 2011, dated 2015).

For this assay, the target named is T1, Wee1 kinase (Homo sapiens, UniProt P30291).
T1 construct: purchased Carnabio 05-177
T1 sequence (P30291 whole entry): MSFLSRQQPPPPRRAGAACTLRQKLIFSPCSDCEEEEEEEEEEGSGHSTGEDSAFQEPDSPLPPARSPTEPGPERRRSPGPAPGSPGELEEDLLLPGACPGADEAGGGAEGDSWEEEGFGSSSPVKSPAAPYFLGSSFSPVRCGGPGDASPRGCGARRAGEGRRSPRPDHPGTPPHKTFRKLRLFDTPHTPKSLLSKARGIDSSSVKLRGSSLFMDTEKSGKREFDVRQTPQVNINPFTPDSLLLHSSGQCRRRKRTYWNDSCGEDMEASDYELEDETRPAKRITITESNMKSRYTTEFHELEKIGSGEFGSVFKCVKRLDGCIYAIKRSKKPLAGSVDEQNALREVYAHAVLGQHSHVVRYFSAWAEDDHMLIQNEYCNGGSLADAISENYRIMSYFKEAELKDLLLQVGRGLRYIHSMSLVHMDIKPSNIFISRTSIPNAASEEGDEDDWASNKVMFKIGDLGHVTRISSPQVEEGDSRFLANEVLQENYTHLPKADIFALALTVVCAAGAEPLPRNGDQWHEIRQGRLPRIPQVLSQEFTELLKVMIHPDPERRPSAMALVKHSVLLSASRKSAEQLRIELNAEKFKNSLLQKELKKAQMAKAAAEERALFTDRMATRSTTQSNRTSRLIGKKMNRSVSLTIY
The experiment in a line: Wee1 time-resolved fluorescence equilibrium binding assay (probe displacement). Conditions: GST-tagged-Wee1 kinase 2 nM, fluorescent probe 300 nM, 1 hour incubation; read-out: Wee-1 binding (Ki nM). How it is done: Wee1 kinase was assayed using a time-resolved fluorescence equilibrium binding assay monitoring displacement of a rapidly reversible Oregon Green-labeled ATP-competitive kinase probe (N-(2-(2-(2-(4-(4-(5-chloro-4-(2-(1-hydroxycyclobutyl)thiazol-5-yl)-1H-pyrrolo[2,3-b]pyridin-2-yl)phenyl)piperazin-1-yl)ethoxy)ethoxy)ethyl)-2′,7′-difluoro-3′,6′-dihydroxy-3-oxo-3H-spiro[isobenzofuran-1,9′-xanthene]-5-carboxamide) by competitive Wee1 inhibitors.
`CN1CCN(c2ccc(Nc3ncc4c(=O)c(-c5ccccc5Cl)c[nH]c4n3)cc2)CC1` [Example 1, 6-(2-chlorophenyl)-2-{[4-(4-methylpiperazin-1-yl)phenyl]amino}pyrido[2,3-d]pyrimidin-5(8H)-one]: the inhibition constant (Ki) (in general, a dissociation constant, usually derived from enzyme kinetics or from competition with a known ligand) was 9.5 nM.

As to `CN1CCN(c2ccc(Nc3ncc4c(=O)c(-c5ccccc5Cl)cn(-c5ccccc5)c4n3)cc2)CC1` [Example 2, 6-(2-chlorophenyl)-2-{[4-(4-methylpiperazin-1-yl)phenyl]amino}-8-phenylpyrido[2,3-d]pyrimidin-5(8H)-one], the Ki turned out to be 2.4 nM.

Turning to `CN1CCN(c2ccc(Nc3ncc4c(=O)c(-c5ccccc5Cl)c(-c5ccccc5)[nH]c4n3)cc2)CC1` [Example 3, 6-(2-chlorophenyl)-2-{[4-(4-methylpiperazin-1-yl)phenyl]amino}-7-phenylpyrido[2,3-d]pyrimidin-5(8H)-one], the inhibitory constant (Ki) is 37 nM.

On to `CN1CCN(c2ccc(Nc3ncc4c(=O)c(-c5c(Cl)cccc5Cl)cn(-c5ccccc5)c4n3)cc2)CC1` [Example 4, 6-(2,6-dichlorophenyl)-2-{[4-(4-methylpiperazin-1-yl)phenyl]amino}-8-phenylpyrido[2,3-d]pyrimidin-5(8H)-one], for which the Ki came to 0.1 nM.

As to `CN1CCN(c2ccc(Nc3ncc4c(=O)c(-c5ccccc5Cl)cn(C)c4n3)cc2)CC1` [Example 5, 6-(2-chlorophenyl)-8-methyl-2-{[4-(4-methylpiperazin-1-yl)phenyl]amino}pyrido[2,3-d]pyrimidin-5(8H)-one], the Ki was found to be 3.7 nM.

Take `CN1CCN(c2ccc(Nc3ncc4c(=O)c(-c5c(Cl)cccc5Cl)c5n(c4n3)CCC5)cc2)CC1` [Example 6, 6-(2,6-dichlorophenyl)-2-{[4-(4-methylpiperazin-1-yl)phenyl]amino}-8,9-dihydropyrimido[4,5-e]indolizin-5(7H)-one]: the inhibition constant (Ki) amounted to 5.7 nM.

Consider `CN1CCN(c2ccc(Nc3ncc4c(=O)c(-c5c(Cl)cccc5Cl)cn(-c5ccncc5)c4n3)cc2)CC1` [Example 7, 6-(2,6-dichlorophenyl)-2-{[4-(4-methylpiperazin-1-yl)phenyl]amino}-8-(pyridin-4-yl)pyrido[2,3-d]pyrimidin-5(8H)-one], for which the Ki was determined as 0.6 nM.

In the case of `CN1CCN(c2ccc(Nc3ncc4c(=O)c(-c5c(Cl)cccc5Cl)cn(C)c4n3)cc2)CC1` [Example 8, 6-(2,6-dichlorophenyl)-8-methyl-2-{[4-(4-methylpiperazin-1-yl)phenyl]amino}pyrido[2,3-d]pyrimidin-5(8H)-one], the Ki came to 0.3 nM.

Consider `CN1CCN(c2ccc(Nc3ncc4c(=O)c(-c5c(Cl)cccc5Cl)cn(-c5ccc(F)cc5)c4n3)cc2)CC1` [Example 9, 6-(2,6-dichlorophenyl)-8-(4-fluorophenyl)-2-{[4-(4-methylpiperazin-1-yl)phenyl]amino}pyrido[2,3-d]pyrimidin-5(8H)-one], for which the inhibitory constant (Ki) is under 1 nM.

In the case of `CN1CCN(c2ccc(Nc3ncc4c(=O)c(-c5c(Cl)cccc5Cl)cn(C5CC5)c4n3)cc2)CC1` [Example 10, 8-cyclopropyl-6-(2,6-dichlorophenyl)-2-{[4-(4-methylpiperazin-1-yl)phenyl]amino}pyrido[2,3-d]pyrimidin-5(8H)-one], the Ki was under 1 nM.

Take `CN1CCN(c2ccc(Nc3ncc4c(=O)c(-c5c(Cl)cccc5Cl)cn(CC(F)(F)F)c4n3)cc2)CC1` [Example 11, 6-(2,6-dichlorophenyl)-2-{[4-(4-methylpiperazin-1-yl)phenyl]amino}-8-(2,2,2-trifluoroethyl)pyrido[2,3-d]pyrimidin-5(8H)-one]: the inhibition constant (Ki) amounted to 3 nM.

Turning to `CN1CCN(c2ccc(Nc3ncc4c(=O)c(-c5c(Cl)cccc5Cl)cn(Cc5ccncc5)c4n3)cc2)CC1` [Example 12, 6-(2,6-dichlorophenyl)-2-{[4-(4-methylpiperazin-1-yl)phenyl]amino}-8-(pyridin-4-ylmethyl)pyrido[2,3-d]pyrimidin-5(8H)-one], the inhibition constant Ki stood at 14 nM.

For `CN(C)CCn1cc(-c2c(Cl)cccc2Cl)c(=O)c2cnc(Nc3ccc(N4CCN(C)CC4)cc3)nc21` [Example 13, 6-(2,6-dichlorophenyl)-8-[2-(dimethylamino)ethyl]-2-{[4-(4-methylpiperazin-1-yl)phenyl]amino}pyrido[2,3-d]pyrimidin-5(8H)-one], the Ki worked out at 24 nM.

Regarding `CN1Cc2cc(Nc3ncc4c(=O)c(-c5c(Cl)cccc5Cl)cn(C)c4n3)ccc2C2(CC2)C1` [Example 14, 6-(2,6-dichlorophenyl)-8-methyl-2-[(2′-methyl-2′,3′-dihydro-1′H-spiro[cyclopropane-1,4′-isoquinolin]-7′-yl)amino]pyrido[2,3-d]pyrimidin-5(8H)-one], the Ki was 0.3 nM.

On to `CN1CCN(c2ccc(Nc3ncc4c(=O)c(-c5c(Cl)cccc5Cl)cn(C5CCC5)c4n3)cc2)CC1` [Example 15, 8-cyclobutyl-6-(2,6-dichlorophenyl)-2-{[4-(4-methylpiperazin-1-yl)phenyl]amino}pyrido[2,3-d]pyrimidin-5(8H)-one], for which the Ki was found to be 0.6 nM.

`CN1CCN(c2ccc(Nc3ncc4c(=O)c(-c5c(Cl)cccc5Cl)cn(CC(C)(C)O)c4n3)cc2)CC1` [Example 16, 6-(2,6-dichlorophenyl)-8-(2-hydroxy-2-methylpropyl)-2-{[4-(4-methylpiperazin-1-yl)phenyl]amino}pyrido[2,3-d]pyrimidin-5(8H)-one]: the inhibitory constant (Ki) was found to be 20 nM.

Regarding `CN1Cc2cc(Nc3ncc4c(=O)c(-c5c(Cl)cccc5Cl)cn(C5CC5)c4n3)ccc2C2(CC2)C1` [Example 17, 8-cyclopropyl-6-(2,6-dichlorophenyl)-2-[(2′-methyl-2′,3′-dihydro-1′H-spiro[cyclopropane-1,4′-isoquinolin]-7′-yl)amino]pyrido[2,3-d]pyrimidin-5(8H)-one], the Ki turned out to be 0.2 nM.

For the compound `CN1CCN(c2ccc(Nc3ncc4c(=O)c(-c5c(Cl)cccc5Cl)c[nH]c4n3)cc2)CC1` [Example 18, 6-(2,6-dichlorophenyl)-2-{[4-(4-methylpiperazin-1-yl)phenyl]amino}pyrido[2,3-d]pyrimidin-5(8H)-one], the Ki was found to be 0.3 nM.

Take `Cc1cc(Nc2ncc3c(=O)c(-c4c(Cl)cccc4Cl)cn(C)c3n2)ccc1N1CCCN(C)CC1` [Example 19, 6-(2,6-dichlorophenyl)-8-methyl-2-{[3-methyl-4-(4-methyl-1,4-diazepan-1-yl)phenyl]amino}pyrido[2,3-d]pyrimidin-5(8H)-one]: the Ki was determined as 0.3 nM.

For `CN1Cc2cc(Nc3ncc4c(=O)c(-c5c(Cl)cccc5Cl)cn(C)c4n3)ccc2C(C)(C)C1` [Example 20, 6-(2,6-dichlorophenyl)-8-methyl-2-[(2,4,4-trimethyl-1,2,3,4-tetrahydroisoquinolin-7-yl)amino]pyrido[2,3-d]pyrimidin-5(8H)-one], the Ki worked out at 0.3 nM.

Regarding `Cn1cc(-c2c(Cl)cccc2Cl)c(=O)c2cnc(Nc3ccc4c(c3)CNCC43CC3)nc21` [Example 21, 6-(2,6-dichlorophenyl)-2-(2′,3′-dihydro-1′H-spiro[cyclopropane-1,4′-isoquinolin]-7′-ylamino)-8-methylpyrido[2,3-d]pyrimidin-5(8H)-one], the Ki worked out at 0.3 nM.

Turning to `CN(C)C1Cc2ccc(Nc3ncc4c(=O)c(-c5c(Cl)cccc5Cl)cn(C)c4n3)cc2C1` (centres unmarked) [Example 22, 6-(2,6-dichlorophenyl)-2-{[2-(dimethylamino)-2,3-dihydro-1H-inden-5-yl]amino}-8-methylpyrido[2,3-d]pyrimidin-5(8H)-one], the Ki turned out to be 0.6 nM.

Consider `CN1Cc2cc(Nc3ncc4c(=O)c(-c5c(Cl)cccc5Cl)cn(C5CC5)c4n3)ccc2C(C)(C)C1` [Example 23, 8-cyclopropyl-6-(2,6-dichlorophenyl)-2-[(2,4,4-trimethyl-1,2,3,4-tetrahydroisoquinolin-7-yl)amino]pyrido[2,3-d]pyrimidin-5(8H)-one], for which the inhibitory constant (Ki) was 0.8 nM.

As to `O=c1c(-c2c(Cl)cccc2Cl)cn(C2CC2)c2nc(Nc3ccc4c(c3)CNCC43CC3)ncc12` [Example 24, 8-cyclopropyl-6-(2,6-dichlorophenyl)-2-(2′,3′-dihydro-1′H-spiro[cyclopropane-1,4′-isoquinolin]-7′-ylamino)pyrido[2,3-d]pyrimidin-5(8H)-one], the Ki is 0.8 nM.

`CN(C)C1Cc2ccc(Nc3ncc4c(=O)c(-c5c(Cl)cccc5Cl)cn(C5CC5)c4n3)cc2C1` (centres unmarked) [Example 25, 8-cyclopropyl-6-(2,6-dichlorophenyl)-2-{[2-(dimethylamino)-2,3-dihydro-1H-inden-5-yl]amino}pyrido[2,3-d]pyrimidin-5(8H)-one]: the Ki is 1.2 nM.

In the case of `CC(C)n1cc(-c2c(Cl)cccc2Cl)c(=O)c2cnc(Nc3ccc(N4CCN(C)CC4)cc3)nc21` [Example 26, 6-(2,6-dichlorophenyl)-2-{[4-(4-methylpiperazin-1-yl)phenyl]amino}-8-(propan-2-yl)pyrido[2,3-d]pyrimidin-5(8H)-one], the Ki amounted to 1.2 nM.

For `CN1CCN(c2ccc(Nc3ncc4c(=O)c(-c5c(Cl)cccc5Cl)cn(C5COC5)c4n3)cc2)CC1` [Example 27, 6-(2,6-dichlorophenyl)-2-{[4-(4-methylpiperazin-1-yl)phenyl]amino}-8-(oxetan-3-yl)pyrido[2,3-d]pyrimidin-5(8H)-one], the Ki is 1.3 nM.

In the case of `CN1CCN(c2ccc(Nc3ncc4c(=O)c(-c5c(Cl)cccc5Cl)cn(C(C)(C)C)c4n3)cc2)CC1` [Example 28, 8-tert-butyl-6-(2,6-dichlorophenyl)-2-{[4-(4-methylpiperazin-1-yl)phenyl]amino}pyrido[2,3-d]pyrimidin-5(8H)-one], the Ki is 19 nM.

Turning to `COc1ccc(Cn2cc(-c3c(Cl)cccc3Cl)c(=O)c3cnc(Nc4ccc5c(c4)CN(C)CC54CC4)nc32)cc1` [Example 29, 6-(2,6-dichlorophenyl)-8-(4-methoxybenzyl)-2-[(2′-methyl-2′,3′-dihydro-1′H-spiro[cyclopropane-1,4′-isoquinolin]-7′-yl)amino]pyrido[2,3-d]pyrimidin-5(8H)-one], the Ki turned out to be 6.4 nM.
